Reference: patent US5470852A, “Tetrahydroprotoberberine quaternary ammonium compounds useful in for treating arrhythmia” (priority 1991, dated 1995)
Entries after “also recorded” stand apart in the source; their conditions may differ. Like-named read-outs stand apart in the source and are kept apart here.

What was measured:
[1] = tested on: normal papillary muscles of guinea pig; assay: Action potential of normal papillary muscles of guinea pig; type: cell-based; conditions: for APA (action potential amplitude) / APD20 / APD50 / APD90 / ERP (effective refractory period) / RP (resting potential) / Vmax: n=7
Excerpt: Effect of I13 on estimates of action potential of normal papillary

[2] = tested on: anaesthetized rats; assay: animal or person; conditions: Rattus norvegicus
[3] = tested on: pathological papillary muscles in rats (hypertrophy); assay: Action potential in hypertrophic papillary muscles in rats (abdominal aorta occlusion); type: cell-based, rat
Excerpt: (§1) Effect of I13 (μ mol/L) on estimates of action potential induced in
(§2) normal and pathological papillary muscles in rats.

[4] = tested on: normal papillary muscles in rats; assay: Action potential in normal papillary muscles in rats; type: cell-based, rat; conditions: n=6, I13 concentration not given
Excerpt: as §1, §2

[5] = tested on: hypertrophic rat heart; assay: Reperfusion-induced VF and VT in hypertrophic rat heart (L-thyroxine); type: in vivo
Method: 4. In the model of hypertrophic rat heart muscle disease caused by long term injections of L-thyroxine, high incidence of VF has been induced in vitro and in vivo when compared with the control after low perfusion-reperfusion or ischemia-reperfusion protocol. […] (shown in Tab 6)
Effect of I13 (100 mg/kg, ig administration at 1 hour before experiment)
on reperfusion-induced VF and VT in hypertrophic rat heart, a
myopathy induced by injecting L-thyroxin

[6] = tested on: guinea pig papillary muscles; assay: Action potential of guinea pig papillary muscles under anoxia, high K+ and acidosis; type: cell-based
Excerpt: Effect of I13 (μ mol/L) on estimates of action potential of guinea
papillary muscles under anoxia, high K^+ and acidosis

[7] = tested on: Langendorff's perfused rat hearts; assay: Ischemia/reperfusion-induced arrhythmias, I13 in perfusate, Langendorff's perfused rat hearts; type: cell-based
Excerpt: FIG. 2. Influence of I13 in perfusate on the time course of reperfusion-induced arrhythmias in Langendorff's perfused rat hearts

[8] = tested on: rabbits; assay: Electrically-induced ventricular fibrillation threshold (VFT) in rabbits; type: in vivo, rabbit; conditions: for VFT Before: baseline
[9] = tested on: pathological papillary muscles in rats (cardiomyopathy); assay: Action potential in papillary muscles of rats with cardiomyopathy (L-thyrotoxin); type: cell-based, rat
Excerpt: as §1, §2

[10] = hypertrophy, n=5, I13 concentration not given
[11] = 100 mg/kg ig 1 hour before, n=10
[12] = anoxia, high K+ and acidosis, I13 concentration not given
[13] = cardiomyopathy, n=5, I13 concentration not given

## COc1ccc2c(c1OC)C[N+]1(Cc3ccc(Cl)cc3)CCc3cc4c(cc3C1C2)OCO4 (stereo not drawn) [Compound I13, 7-(4-chlorobenzyl)-5,8,13,13a-tetrahydroberberine chloride]
[1]
  influence on APA: no influence
  influence on RP: no influence
[1]; 0.3 μmol/L
  influence on APD50 (printed ADP50): able to lengthen ADP50
  APA (action potential amplitude): 125 ± 3 mv
  APD20: 88 ± 13 ms
  APD50: 176 ± 29 ms
  APD90: 201 ± 30 ms
  ERP (effective refractory period): 201 ± 28 ms
  RP (resting potential): 91 ± 1 mv
  Vmax: 260 ± 60 v/s
[1]; 1 μmol/L
  APA (action potential amplitude): 123 ± 3 mv
  APD20: 86 ± 10 ms
  APD50: 181 ± 27 ms
  APD90: 208 ± 29 ms
  ERP (effective refractory period): 207 ± 27 ms
  RP (resting potential): 90 ± 1 mv
  Vmax: 250 ± 70 v/s
[1]; 3 μmol/L
  APA (action potential amplitude): 123 ± 3 mv
  APD20: 84 ± 8 ms
  APD50: 182 ± 23 ms
  APD90: 211 ± 26 ms
  ERP (effective refractory period): 213 ± 18 ms
  RP (resting potential): 89 ± 3 mv
  Vmax: 217 ± 60 v/s
[1]; 10 μmol/L
  APA (action potential amplitude): 122 ± 3 mv
  APD20: 80 ± 5 ms
  APD50: 161 ± 28 ms
  APD90: 206 ± 26 ms
  ERP (effective refractory period): 211 ± 23 ms
  RP (resting potential): 89 ± 1 mv
  Vmax: 180 ± 60 v/s
[1]; 30 μmol/L
  APA (action potential amplitude): 116 ± 5 mv
  APD20: 58 ± 11 ms
  APD50: 128 ± 19 ms
  APD90: 158 ± 22 ms
  ERP (effective refractory period): 166 ± 24 ms
  RP (resting potential): 87 ± 3 mv
  Vmax: 140 ± 50 v/s
[1]; 1 to 3 μmol/L
  influence on APD50 and APD90 (printed ADP50, ADP90): prolonged
[1]; Cavia porcellus, 3 μmol/L, isolated papillary muscles of guinea pigs, read-out: inhibition of Vmax
  inhibition at 3 µM: 20%
[1]; electrophysiological studies
  antiarrhythmic class properties: properties of Ia, Ib and III
[1]; low vs high concentrations
  two-phase effect on APD: lengthened at low concentrations and shortened at high concentrations
[2]; iv
  ED50: 0.16 mg/kg
[2]; iv, read-out: ED50 against VF
  ED50: 0.16 mg/kg
[2]; iv, read-out: ED50 against arrhythmias
  ED50: 0.22 mg/kg
[2]; po
  ED50: 16.5 mg/kg
[2]; po, read-out: ED50 against VF
  ED50: 20 mg/kg
[2]; po, read-out: ED50 against arrhythmias
  ED50: 16.5 mg/kg
[3]
  influence on APD in hypertrophic myocardium: could not be further exaggerated; also recorded: no action on hypertrophic myocardium
[3]; abdominal aorta occlusion, rats
  Vmax in left ventricular hypertrophy: completely inhibited
[3]; [10]
  APA: 104 ± 4 mv
  APD20: 8 ± 2 ms
  APD50: 20 ± 4 ms
  APD90: 45 ± 5 ms
  ERP: 45 ± 9 ms
  RP: 81 ± 3 mv
  Vmax: 210 ± 40 v/s
[4]
  APA: 108 ± 9 mv
  APD20: 5 ± 1 ms
  APD50: 15 ± 4 ms
  APD90: 44 ± 9 ms
  ERP: 43 ± 8 ms
  RP: 83 ± 4 mv
  Vmax: 200 ± 50 v/s
[5]; [11]
  Duration of VF: 2.0 ± 3.0 min
  Duration of VT: 0.4 ± 0.8 min
  Incidence of VF: 30%
  Incidence of VT: 20%
[5]; p.o. 100 mg/kg one hour prior to ischemia
  inhibition of incidence of VF and VT: clearly inhibited the incidence of VF and VT
[6]
  Vmax under anoxia, high K+ and acidosis: lowered
[6]; anoxia, high K+ and acidosis, I13 (μmol/L, concentration not given), n=8
  RP: 85 ± 2 mv
[6]; [12]
  APA: 116 ± 2 mv
  APD20: 78 ± 13 ms
  APD50: 156 ± 20 ms
  APD90: 170 ± 21 ms
  ERP: 186 ± 19 ms
  Vmax: 190 ± 40 v/s
[7]; 3 μmol/L
  protection against VT and VF induced by ischemia and reperfusion: effective protection against the VT and VF
[7]; 3 μmol/L (FIG. 2)
  ke: 0.030 min⁻¹
[7]; 10 μmol/L (FIG. 2)
  ke: 0.020 min⁻¹
[8]; intra-duodenal 4.5 mg/kg group
  VFT Before: 5.8 ± 0.3 volt
[8]; intra-duodenal 15 mg/kg group
  VFT Before: 5.2 ± 0.9 volt
[8]; iv 1.5 mg/kg group
  VFT Before: 5.2 ± 0.6 volt
[8]; i.v.
  potency in elevating VFT relative to lidocaine: ten times more potent than lidocaine
[8]; id 4.5 mg/kg
  AUC (area under curve, VFT effect): 48.1
[8]; id 15 mg/kg
  AUC (area under curve, VFT effect): 83.7
[8]; intra-duodenal 4.5 mg/kg
  VFT After: 8.9 ± 0.4 volt
  ΔVFT: 3.1 ± 0.4 volt
  ΔVFT %: 53.0 ± 7.6%
[8]; intra-duodenal 15 mg/kg
  VFT After: 9.9 ± 2.2 volt
  ΔVFT: 4.8 ± 1.5 volt
  ΔVFT %: 92.1 ± 19.5%
[8]; iv 1.5 mg/kg
  AUC (area under curve, VFT effect): 11.1
  VFT After: 8.1 ± 1.1 volt
  ΔVFT: 2.8 ± 0.8 volt
  ΔVFT %: 54.4 ± 16.9%
[8]; iv 4.5 mg/kg
  AUC (area under curve, VFT effect): 14.4
  VFT After: 8.8 ± 1.1 volt
  ΔVFT: 3.6 ± 0.6 volt
  ΔVFT %: 72.2 ± 9.7%
[9]; L-thyrotoxin, rats
  Vmax in cardiomyopathy model: completely inhibited
[9]; [13]
  APA: 104 ± 7 mv
  APD20: 12 ± 3 ms
  APD50: 32 ± 4 ms
  APD90: 65 ± 5 ms
  ERP: 66 ± 6 ms
  RP: 81 ± 5 mv
  Vmax: 160 ± 50 v/s
